Laboratory results as given in patent EP0683161A1, “Ester of 4-amino-5-chloro-2-methoxybenzoic acid, process for their preparation and pharmaceutical compositions containing them” (MIDY S.p.A., priority 1994, dated 1995).

Legend:
récepteur 5-HT₄ [1] = target: récepteur 5-HT₄ (Homo sapiens, UniProt Q13639); assay: activity of the separated cis and trans isomers at the 5-HT4 receptor (test not specified); details: cis and trans isomers evaluated separately
récepteur 5-HT₄ [2] = target: T1, récepteur 5-HT₄ (Cavia porcellus, UniProt O70528); assay: 5-HT response of the electrically stimulated guinea pig ileum myenteric plexus (modified Craig and Clarke test); design: species or system cobayes; details: 30 min incubation, cumulative 5-HT curve 10⁻¹⁰ to 10⁻⁵M
T1 construct: On isole le plexus myentérique à partir de segments d'iléon de 3 cm environ; from tissue; host or cells: guinea pig ileum myenteric plexus (isolated organ bath)
T1 sequence (O70528 whole entry): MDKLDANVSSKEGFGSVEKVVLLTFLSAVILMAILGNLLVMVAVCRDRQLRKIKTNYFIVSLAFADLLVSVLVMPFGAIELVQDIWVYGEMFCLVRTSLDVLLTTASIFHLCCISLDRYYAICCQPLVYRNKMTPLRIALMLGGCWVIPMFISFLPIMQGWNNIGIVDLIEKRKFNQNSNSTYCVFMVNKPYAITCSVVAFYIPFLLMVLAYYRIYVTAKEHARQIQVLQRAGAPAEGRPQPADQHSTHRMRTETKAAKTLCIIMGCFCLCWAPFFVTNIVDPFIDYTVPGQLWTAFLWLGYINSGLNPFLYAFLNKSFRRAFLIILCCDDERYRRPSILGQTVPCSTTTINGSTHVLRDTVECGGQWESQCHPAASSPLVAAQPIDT
Description: Dans le but d'évaluer l'activité vis-à-vis du récepteur 5-HT₄, on a soumis les composés de l'invention à l'essai décrit par D.A. Craig et D.E. Clarke. (J. Pharmacol. Exp. Ther., 1990, 252: 1378-86) en lui apportant quelques modifications.
Des cobayes albinos mâles - Charles River Italia - (poids moyen de 500 g) sont sacrifiés par décapitation. On isole le plexus myentérique à partir de segments d'iléon de 3 cm environ, prélevés à 10 cm de la jonction iléooeecale; on place le plexus dans un bain de 20 ml pour organes isolés, contenant une solution de Krebs et de l'acide ascorbique à raison de 1 mg/ml. On maintient la solution, aérée au carboxygène, à la température de 37°C. Le plexus, relié à un transducteur isotonique et soumis à une charge de 0,5 g, est stimulé électriquement de façon supramaximale (fréquence 0,2 Hz, durée […]) par une électrode coaxiale au platine. La préparation est traitée avec de la phénoxybenzamine 10⁻⁷M pendant 30 minutes et, ensuite, lavée plusieurs fois. On réduit le voltage jusqu'à obtenir un effet stimulant de 50% par rapport au maximum et le plexus est ensuite stimulé par la sérotonine à raison de 3·10⁻⁷M. Après lavage et stabilisation, la préparation est prête pour l'essai des composés à activité 5-HT₄. Trois courbes cumulatives de 5-HT sont construites toutes les 60 minutes. […]

récepteurs 5-HT₄ = récepteurs 5-HT₄ (Rattus norvegicus, UniProt Q62758); assay: 5-HT relaxation of carbachol-contracted rat oesophagus tunica muscularis mucosae (Baxter and Clarke method); details: rat oesophagus tunica muscularis mucosae contracted by carbachol; result in words only
Sequence of récepteurs 5-HT₄ (Q62758 whole entry): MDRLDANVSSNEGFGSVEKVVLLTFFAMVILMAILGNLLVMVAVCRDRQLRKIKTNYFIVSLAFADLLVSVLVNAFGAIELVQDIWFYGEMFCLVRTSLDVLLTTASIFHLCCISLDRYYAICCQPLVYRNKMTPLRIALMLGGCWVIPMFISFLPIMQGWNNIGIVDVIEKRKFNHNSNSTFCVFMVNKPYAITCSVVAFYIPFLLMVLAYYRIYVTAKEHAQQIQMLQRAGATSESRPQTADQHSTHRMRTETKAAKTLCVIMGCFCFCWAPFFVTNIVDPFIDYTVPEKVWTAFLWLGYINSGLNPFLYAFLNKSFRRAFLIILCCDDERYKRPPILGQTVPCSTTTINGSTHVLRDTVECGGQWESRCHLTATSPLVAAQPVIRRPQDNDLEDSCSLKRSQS
Description: De plus, toujours pour l'évaluation de l'activité 5-HT₄, on a soumis le composé de formule (I) à un essai sur la tunica muscolaris mucosae de l'oesophage de rat contracté par du carbacol. […] Des rats mâles Crl:CD(SD)BR (Charles River Italia) d'un poids moyen de 250 g sont sacrifiés par dislocation cervicale. Un segment d'oesophage d'environ 2 cm est prélevé au niveau intratoraxique à proximité du diaphragme. La tunica muscolaris mucosae est ensuite isolée et suspendue dans un bain pour organes isolés de 20 ml contenant une solution de Krebs en présence d'hydrocortisone (3·10⁻⁷ M) à 37°C aérée avec 95% O₂ et 5% CO₂. Le tissu est relié à un transducteur isotonique et soumis à une charge de 1 g. La préparation est incubée avec de la pargiline (10⁻⁴ M) pendant 30 minutes et lavée plusieurs fois. Après 60 minutes environ, on contracte le tissu avec des doses cumulatives de carbacol (10⁻⁶, 2·10⁻⁶, 3·10⁻⁶, 4·10⁻⁶ M); de cette manière, on obtient un tonus du tissu stable dans le temps. La 5-HT (10⁻¹⁰ et 10⁻⁶ M), qui est ajoutée cumulativement, relaxe l'oesophage grâce à l'activation des récepteurs 5-HT₄. Trois courbes de carbacol sont construites par préparation toutes les 90 minutes. Après chaque courbe, on procède au moins à 4 lavages. Aussi bien la contraction provoquée par le carbacol que les effets sur celle-ci sont identiques et peuvent être reproduits. […]

récepteur 5-HT₃ = target: T2, récepteur 5-HT₃ (Rattus norvegicus, UniProt P35563); assay: in vitro binding to 5-HT3 sites of rat cerebral cortex, displacement of [3H] BRL 43694 (granisetron); details: rat cerebral cortex membranes, labelled ligand 0,5 nM
T2 construct: les sites de liaison 5-HT₃ présents dans le cortex cérébral du rat; from tissue; host or cells: rat cerebral cortex membranes
T2 sequence (P35563 24-483): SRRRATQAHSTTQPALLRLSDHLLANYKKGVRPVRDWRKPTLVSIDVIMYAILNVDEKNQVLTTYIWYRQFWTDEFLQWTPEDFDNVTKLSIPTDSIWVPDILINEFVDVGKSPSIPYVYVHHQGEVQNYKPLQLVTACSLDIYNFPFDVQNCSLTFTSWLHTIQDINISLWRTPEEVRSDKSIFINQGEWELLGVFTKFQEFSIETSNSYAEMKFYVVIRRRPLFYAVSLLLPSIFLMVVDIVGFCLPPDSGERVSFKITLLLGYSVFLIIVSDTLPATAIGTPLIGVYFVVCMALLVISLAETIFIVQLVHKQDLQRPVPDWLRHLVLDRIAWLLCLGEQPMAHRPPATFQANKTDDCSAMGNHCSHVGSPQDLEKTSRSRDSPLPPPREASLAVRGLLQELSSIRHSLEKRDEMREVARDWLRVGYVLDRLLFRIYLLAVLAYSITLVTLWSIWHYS
Procedure: Afin de tester l'affinité du composé de formule (I) relativement au récepteur 5-HT₃, on a effectué des essais de liaison in vitro en utilisant les sites de liaison 5-HT₃ présents dans le cortex cérébral du rat (G.J. Kilpatrick, B.J. Jones et M.B. Tyers, Nature, 1987; 330: 746-8) et comme ligand marqué le [³H] BRL 43694 (granisetron), un antagoniste des récepteurs 5-HT₃ puissant et spécifique, à la concentration de 0,5 nM.
La préparation des membranes et le test de liaison ont été effectués selon la méthode décrite par Nelson et Thomas (D.R. Nelson et D.R. Thomas, Biochem. Pharmacol., 1989; 38: 1693-5).
Les résultats ont été évalués avec des méthodes d'ajustement ("fitting") non linéaire "Accufit saturation", pour les études de saturation (H.A. Feldman, Analyt. Biochem., 1972; 48: 317-38) et "Accufit competition", pour les études de déplacement (H.A. Feldman, D. Rodbard et D. Levine, Analyt. Biochem., 1972; 45: 530-56).

Sequence of récepteur 5-HT₄ (Homo sapiens, UniProt Q13639) (Q13639 whole entry): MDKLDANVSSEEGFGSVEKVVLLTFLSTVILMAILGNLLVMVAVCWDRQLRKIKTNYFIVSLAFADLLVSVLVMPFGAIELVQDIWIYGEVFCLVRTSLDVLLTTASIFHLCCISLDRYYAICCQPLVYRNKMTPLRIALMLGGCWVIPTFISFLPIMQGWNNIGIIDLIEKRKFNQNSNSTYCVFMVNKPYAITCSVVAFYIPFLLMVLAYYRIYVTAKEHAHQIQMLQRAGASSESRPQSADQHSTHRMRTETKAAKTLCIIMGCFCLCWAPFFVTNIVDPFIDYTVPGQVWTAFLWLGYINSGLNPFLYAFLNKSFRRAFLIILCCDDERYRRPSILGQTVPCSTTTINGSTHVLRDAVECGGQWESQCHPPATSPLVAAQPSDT

| SMILES | activité vis-à-vis du récepteur 5-HT₄ (récepteur 5-HT₄ [1]) | IC₅₀, dose qui réduit de 50% la réponse de la 5-HT (récepteur 5-HT₄ [2]) | pA₂ (antagonism of 5-HT relaxation) (récepteurs 5-HT₄) | déplacement du [³H] BRL 43694 (récepteur 5-HT₃) |
| --- | --- | --- | --- | --- |
| COc1cc(N)c(Cl)cc1C(=O)OCCN1CC(C)CC(C)C1 (stereo not drawn) [isomère cis, isomère cis de l'ester 3,5-diméthylpipéridinoéthyliquede l'acide 4-amino-5-chloro-2-méthoxybenzoïque] | le plus actif |  |  |  |
| COc1cc(N)c(Cl)cc1C(=O)OCCN1CC(C)CC(C)C1 (stereo not shown) [composé de formule (I), ester 3,5-diméthylpipéridinoéthyliquede l'acide 4-amino-5-chloro-2-méthoxybenzoïque] |  | quelques nanomoles | très efficace | inactif |
